From ChEMBL document CHEMBL1201862, “PubChem BioAssay data set” (2004) come the findings set out here.

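Method: 48-hour compound exposure of cells in 96-well plates, five concentrations, linear interpolation of endpoints. GI50 = concentration required for 50% inhibition of growth.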 The source made the active and inactive calls. Rule as the data show it: active = GI50 up to about 1.1 µM and inactive = higher.

Among the test systems are SR; OVCAR-8; SNB-75; NCI-H522; SK-MEL-5; TK-10; UACC-257; HCT-116; A549; Hs-578T; MDA-N; NCI/ADR-RES; NCI-H460; SK-OV-3; NCI-H226; CCRF-CEM; RPMI-8226; SF-295; SF-268; 786-0.
Assay in all cases: NCI-60 cell line screen, 48 h

For the molecule `CSc1ccc2c(c1)C(N1CCN(C)CC1)Cc1ccccc1S2` (stereo not given), the GI50 in the test on SR is 2.3 µM (inactive); in the test with OVCAR-8, 6.84 µM (inactive); in the test with SNB-75, < 0.01 µM (active); in the test with NCI-H522 it was 2.99 µM (inactive); with SK-MEL-5, 1.82 µM (inactive); in the test on TK-10 it was 3.35 µM (inactive). For the same molecule, the GI50 in the test with UACC-257 was 2.07 µM (inactive); with HCT-116, 3.84 µM (inactive); with A549 it was 7.18 µM (inactive); in the test with Hs-578T, 4.4 µM (inactive); in the test on MDA-N it was 3.07 µM (inactive); with NCI/ADR-RES, 5.56 µM (inactive). The GI50 is 2.47 µM (inactive) in the test with NCI-H460; 13.9 µM (inactive) in the test on SK-OV-3; 7.8 µM (inactive) in the test with NCI-H226; 0.219 µM (active) in the test with CCRF-CEM; 1.91 µM (inactive) with RPMI-8226; 3.83 µM (inactive) with SF-295. The GI50 in the test with SF-268 was 3.43 µM (inactive); in the test on 786-0, 4.47 µM (inactive).
In the case of `Nc1nc(Cl)cc(Oc2ccc(Cl)cc2)n1`, the GI50 in the test on SR was > 80.4 µM (inactive); with OVCAR-8 it was > 73.6 µM (inactive); with SNB-75 it was > 100 µM (inactive); in the test on NCI-H522, 22.6 µM (inactive); with SK-MEL-5, > 56.6 µM (inactive); in the test with TK-10, 28.2 µM (inactive). Besides, the GI50 in the test on UACC-257 is 38.5 µM (inactive); in the test with HCT-116, > 57.9 µM (inactive); with A549 it was > 100 µM (inactive); in the test on Hs-578T, > 53.7 µM (inactive); with MDA-N it was > 61 µM (inactive); in the test on NCI/ADR-RES it was > 70.3 µM (inactive). Further, the GI50 in the test on NCI-H460 is > 54.7 µM (inactive); in the test on SK-OV-3 it was > 55.2 µM (inactive); in the test with NCI-H226, > 100 µM (inactive); in the test on CCRF-CEM it was > 77.6 µM (inactive); in the test with RPMI-8226, > 55.6 µM (inactive); in the test on SF-295, > 55.8 µM (inactive). The GI50 is > 54.8 µM (inactive) in the test on SF-268 and > 59 µM (inactive) with 786-0.
On to `C[C@H](c1ccccc1)n1c(N)c(-c2nc3ccccc3s2)c2ccc([N+](=O)[O-])cc2c1=O`, for which the GI50 with SR is 1.44 µM (inactive); with OVCAR-8, 3.83 µM (inactive); in the test with SNB-75, 4.58 µM (inactive); with NCI-H522 it was 1.32 µM (inactive); with SK-MEL-5, 4.8 µM (inactive); in the test with TK-10 it was 10.2 µM (inactive). In addition, the GI50 is 11.8 µM (inactive) in the test on UACC-257; 1.91 µM (inactive) in the test with HCT-116; 9.98 µM (inactive) in the test with A549; 2.58 µM (inactive) in the test with Hs-578T; 13.6 µM (inactive) in the test with MDA-N; 2.84 µM (inactive) with NCI/ADR-RES. The GI50 in the test with NCI-H460 was 4.09 µM (inactive); in the test on SK-OV-3, 8.99 µM (inactive); with NCI-H226 it was 4.65 µM (inactive); with CCRF-CEM it was 0.773 µM (active); with RPMI-8226, 0.324 µM (active); in the test on SF-295, 4.7 µM (inactive). For the same molecule, the GI50 was 6.27 µM (inactive) in the test with SF-268 and 9.29 µM (inactive) in the test on 786-0.
For `O=C(NC(=O)c1c(Cl)nc2sccn12)Nc1ccc(Cl)cc1`, the GI50 with SR is > 100 µM (inactive); with OVCAR-8, 52.6 µM (inactive); in the test with SNB-75 it was 19.9 µM (inactive); with NCI-H522, 61 µM (inactive); in the test with SK-MEL-5 it was > 88.3 µM (inactive); in the test with TK-10, 35.6 µM (inactive). The GI50 with UACC-257 is > 100 µM (inactive); in the test on HCT-116, 69.2 µM (inactive); with A549 it was 81.3 µM (inactive); with Hs-578T it was 8.81 µM (inactive); in the test with MDA-N, > 100 µM (inactive); in the test with NCI/ADR-RES, > 70.3 µM (inactive). For the same molecule, the GI50 is > 85.9 µM (inactive) in the test with NCI-H460; 27.4 µM (inactive) in the test on SK-OV-3; 45.2 µM (inactive) with NCI-H226; > 100 µM (inactive) with CCRF-CEM; > 100 µM (inactive) in the test on RPMI-8226; 33.6 µM (inactive) with SF-295. Besides, the GI50 in the test on SF-268 is 26.2 µM (inactive); with 786-0, 35.4 µM (inactive).
Consider `C/C=C/C(C/C=C(\C)CO[Si](C)(C)C(C)(C)C)O[Si](C)(C)C(C)(C)C` (stereo not given), for which the GI50 in the test on SR, in the test with OVCAR-8, in the test with SNB-75, with NCI-H522, in the test on SK-MEL-5 and in the test on TK-10 was > 100 µM (inactive) each time. For the same molecule, the GI50 in the test on UACC-257, in the test on HCT-116, in the test with A549, in the test on Hs-578T, with MDA-N and in the test on NCI/ADR-RES was > 100 µM (inactive) in each case. Besides, the GI50 in the test on NCI-H460, in the test with SK-OV-3, with NCI-H226, in the test with CCRF-CEM, in the test on RPMI-8226 and in the test on SF-295 was > 100 µM (inactive) each time. Moreover, the GI50 with SF-268 and in the test with 786-0 was > 100 µM (inactive) each time.
For `O=C(Nc1ccc(Cl)cc1)NS(=O)(=O)c1coc2ccccc2c1=O`, the GI50 in the test with SR, in the test with OVCAR-8, with SNB-75, in the test on NCI-H522, with SK-MEL-5 and with TK-10 was > 10 µM (inactive) in each case. Also, the GI50 in the test on UACC-257, with HCT-116, with A549, in the test with Hs-578T, in the test on MDA-N and in the test on NCI/ADR-RES was > 10 µM (inactive) in each case. Besides, the GI50 in the test with NCI-H460, in the test with SK-OV-3, in the test with NCI-H226, with CCRF-CEM, with RPMI-8226 and with SF-295 was > 10 µM (inactive) in each case. Also, the GI50 in the test with SF-268 and in the test on 786-0 was > 10 µM (inactive) throughout.
As to `NC(=O)[C@H](Cc1ccc(O)cc1)NC1=C(Cl)C(=O)c2c(O)ccc(O)c2C1=O`, the GI50 in the test with SR was 1.34 µM (inactive); with OVCAR-8, 2.54 µM (inactive); with SNB-75, 4.93 µM (inactive); with NCI-H522, 1.63 µM (inactive); with SK-MEL-5 it was 1.47 µM (inactive); in the test on TK-10 it was 2.72 µM (inactive). In addition, the GI50 with UACC-257 was 3.15 µM (inactive); in the test with HCT-116, 1.57 µM (inactive); with A549 it was 7.73 µM (inactive); in the test on Hs-578T it was 3.71 µM (inactive); in the test on MDA-N, 1.93 µM (inactive); in the test on NCI/ADR-RES it was 2.8 µM (inactive). Also, the GI50 in the test on NCI-H460 is 7.76 µM (inactive); in the test with SK-OV-3, > 10 µM (inactive); in the test on NCI-H226, > 10 µM (inactive); in the test with CCRF-CEM it was 0.241 µM (active); in the test on RPMI-8226, 2.25 µM (inactive); with SF-295 it was > 10 µM (inactive). For the same molecule, the GI50 in the test on SF-268 is 3.7 µM (inactive); in the test with 786-0, 2.02 µM (inactive).
`COc1ccc(N2CCN(Cc3c(C(C)=O)[n+]([O-])c4ccccc4[n+]3[O-])CC2)cc1`: the GI50 with SR was 37.8 µM (inactive); in the test on OVCAR-8 it was 28.7 µM (inactive); in the test on SNB-75 it was 15.6 µM (inactive); with NCI-H522, 36.1 µM (inactive); in the test with SK-MEL-5 it was 37.1 µM (inactive); in the test with TK-10, 9.29 µM (inactive). Also, the GI50 in the test on UACC-257 is 29.8 µM (inactive); with HCT-116 it was 49.5 µM (inactive); in the test on A549 it was 40.3 µM (inactive); in the test with Hs-578T, 25.2 µM (inactive); with MDA-N, 36.4 µM (inactive); in the test with NCI/ADR-RES, 24.5 µM (inactive). Also, the GI50 in the test on NCI-H460 is 87.5 µM (inactive); in the test on SK-OV-3 it was 32.3 µM (inactive); in the test with NCI-H226 it was 29 µM (inactive); with CCRF-CEM, 61.1 µM (inactive); with RPMI-8226 it was > 100 µM (inactive); in the test with SF-295, 51.8 µM (inactive). The GI50 in the test with SF-268 is 21.1 µM (inactive); with 786-0, 53.5 µM (inactive).
Take `O=C(/C(Cl)=C/c1ccccc1)c1ccccc1`: the GI50 in the test on SR is 1.85 µM (inactive); in the test on OVCAR-8, 2.84 µM (inactive); in the test on SNB-75, 13.2 µM (inactive); with NCI-H522, 1.58 µM (inactive); in the test on SK-MEL-5, 3.11 µM (inactive); in the test on TK-10, 3.21 µM (inactive). Moreover, the GI50 in the test with UACC-257 is 6.9 µM (inactive); with HCT-116, 1.21 µM (inactive); in the test on A549, 10.9 µM (inactive); in the test with Hs-578T, 3.54 µM (inactive); in the test on MDA-N it was 1.86 µM (inactive); in the test with NCI/ADR-RES it was 3.55 µM (inactive). Also, the GI50 is 8.71 µM (inactive) in the test on NCI-H460; 19.7 µM (inactive) in the test with SK-OV-3; 7.26 µM (inactive) in the test with NCI-H226; 0.692 µM (active) in the test with CCRF-CEM; 2.33 µM (inactive) in the test with RPMI-8226; 17.5 µM (inactive) with SF-295. Further, the GI50 is 7.06 µM (inactive) with SF-268 and 1.53 µM (inactive) in the test with 786-0.
On to `O=C1C(O)=C(C(C2=C(O)C(=O)c3ccccc3C2=O)c2ccc(Cl)cc2)C(=O)c2ccccc21`, for which the GI50 was 3.18 µM (inactive) with SR; 8.75 µM (inactive) with OVCAR-8; 2.5 µM (inactive) in the test with SNB-75; 8.95 µM (inactive) in the test with NCI-H522; 6.67 µM (inactive) in the test on SK-MEL-5; 14.7 µM (inactive) with TK-10. In addition, the GI50 is 5 µM (inactive) in the test on UACC-257; 6.34 µM (inactive) with HCT-116; 19.3 µM (inactive) in the test with A549; 14.7 µM (inactive) in the test with Hs-578T; 1.83 µM (inactive) with MDA-N; 11.6 µM (inactive) in the test with NCI/ADR-RES. The GI50 with NCI-H460 is 14 µM (inactive); in the test on SK-OV-3 it was 17.7 µM (inactive); in the test with NCI-H226, 28.9 µM (inactive); in the test with CCRF-CEM it was 6.4 µM (inactive); in the test with RPMI-8226, 9.86 µM (inactive); in the test with SF-295, 5.78 µM (inactive). Also, the GI50 in the test with SF-268 was 10.4 µM (inactive); in the test on 786-0, 3.33 µM (inactive).
